Test results from publication PMC8205226, “HIV-1 Integrase Inhibitors with Modifications That Affect Their Potencies against Drug Resistant Integrase Mutants” (ACS Infectious Diseases, 2021).
Where two headings read alike, the source gives them in different places.

How the values were obtained:
[1] = tested on: HIV-1 IN double mutant G140S/Q148H; assay: single-round infectivity assay, G140S/Q148H IN double mutant; format: cell-based; conditions: EC50 compound / EC50 DTG
Description: (§1) Figure 2 Antiviral activities of the new compounds against RAL-resistant mutants. The EC50 values were determined using a vector that carries WT HIV-1 IN and the RAL-resistant mutants in a single round infection assay. […] Error bars represent the standard deviations of independent experiments, n = 4, performed in triplicate. The graph has a maximum value of 550 nM.
(§2) WT and mutant HIV-1 viral vectors were used in single-round infectivity assays to determine the antiviral potencies (EC50 values) of the compounds and the effects of the mutants on the EC50 values as previously described.[30],[54] Single round infectivity measurements were determined as done previously.[38]
(§3) The vector pNLNgoMIVR-ΔENV.LUC has been described previously.[26] To produce the new IN mutants used in this study, the IN open reading frame was removed from pNLNgoMIVR-ΔENV.LUC by digestion with KpnI and SalI, and the resulting fragment was inserted between the KpnI and SalI sites of pBluescript KS+. Using that construct as the wild-type template, we prepared the following HIV-1 IN mutants using the QuikChange II XL site directed mutagenesis kit (Agilent Technologies, Santa Clara, CA) protocol: N117A, N117H, P142A, P142H, P142S, Y143C, Y143H, S230R, R231G, and R231K. The following sense oligonucleotides were used with matching cognate antisense oligonucleotides (not shown) (Integrated DNA Technologies, Coralville, IA) in the mutagenesis: N117A, 5′-[…]-3′; N117H, 5′-[…]-3′; P142A, 5′-[…]-3′; P142H, 5′-[…]-3′; P142S, 5′-[…]-3′; Y143C, 5′- […]-3′; Y143H, 5′-[…]-3′; S230R, 5′- […]-3′; R231G, 5′-[…]-3′; R231K, 5′-[…]-3′.

HIV-1 IN mutant S230R = assay: single-round infectivity assay, S230R IN mutant; format: cell-based
Description: (§4) Figure 5 Antiviral potencies of the new compounds against IN with mutations in the […]. The EC50 values were determined using a vector that carries the IN mutant in a single round infection assay. […] Error bars represent the standard deviations of independent experiments, n = 4, performed in triplicate.
as §2, §3

HIV-1 IN mutant N155H = assay: single-round infectivity assay, N155H IN mutant; format: cell-based; conditions: EC50 compound / EC50 DTG
Description: as §1, §2, §3

HIV-1 IN mutant N117A = assay: single-round infectivity assay, N117A IN mutant; format: cell-based
Description: (§5) The EC50 values were determined using a vector that carries the IN mutant in a single round infection assay. […] Error bars represent the standard deviations of independent experiments, n = 4, performed in triplicate.
as §2, §3

HIV-1 IN mutant R231G = assay: single-round infectivity assay, R231G IN mutant; format: cell-based
Description: as §4, §2, §3

[2] = tested on: HIV-1 IN double mutant G140S/Q148H; conditions: single round infection; previously reported; cited from earlier work
HIV-1 IN mutant G118R [3] = assay: single-round infectivity assay, G118R IN mutant; format: cell-based
Description: as §5, §2, §3

HIV-1 IN mutant Y143H = assay: single-round infectivity assay, Y143H IN mutant; format: cell-based
Description: as §5, with “Figure 4 Mutations in the β5-α3 loop affect the antiviral potencies of the new compounds. The” for “The”
as §2, §3

HIV-1 IN mutant P142S = assay: single-round infectivity assay, P142S IN mutant; format: cell-based
Description: as §5, with “Figure 4 Mutations in the β5-α3 loop affect the antiviral potencies of the new compounds. The” for “The”
as §2, §3

HIV-1 IN mutant Y143C = assay: single-round infectivity assay, Y143C IN mutant; format: cell-based
Description: as §5, with “Figure 4 Mutations in the β5-α3 loop affect the antiviral potencies of the new compounds. The” for “The”
as §2, §3

HIV-1 IN mutant R231K = assay: single-round infectivity assay, R231K IN mutant; format: cell-based
Description: as §4, §2, §3

HIV-1 IN mutant G118R [4] = conditions: single round infection; previously shown; cited from earlier work
HIV-1 IN mutant S119R = assay: single-round infectivity assay, S119R IN mutant; format: cell-based
Description: as §5, §2, §3

HIV-1 IN mutant N117H = assay: single-round infectivity assay, N117H IN mutant; format: cell-based
Description: as §5, §2, §3

WT HIV-1 = conditions: vector carrying WT HIV-1 IN, single round infection; previously reported; cited from earlier work
HIV-1 IN mutant Y143R = assay: single-round infectivity assay, Y143R IN mutant; format: cell-based; conditions: EC50 compound / EC50 DTG
Description: as §1, §2, §3

HIV-1 IN mutant P142H = assay: single-round infectivity assay, P142H IN mutant; format: cell-based
Description: as §5
Single round infectivity measurements were determined as done previously.[38]
as §3

HIV-1 IN mutant P142A = assay: single-round infectivity assay, P142A IN mutant; format: cell-based
Description: as §5, with “Figure 4 Mutations in the β5-α3 loop affect the antiviral potencies of the new compounds. The” for “The”
as §2, §3

[5] = fold change in EC50, IN mutant versus WT HIV-1

## Nc1c(C(=O)NCc2ccc(F)cc2F)c(=O)n(O)c2ncc(CCS(=O)(=O)c3ccccc3)cc12 [4f]
[1]
  ratio of the EC50s (our compound relative to DTG) against G140S/Q148H: 0.9
HIV-1 IN mutant S230R; EC50 compound / EC50 DTG
  ratio of the EC50s (our compound relative to DTG) against S230R: 1.0
HIV-1 IN mutant S230R; Human immunodeficiency virus 1, read-out: EC50 values S230R
  EC50: 4.8 ± 0.3 nM
HIV-1 IN mutant S230R; [5]
  FC S230R: 2.4
HIV-1 IN mutant N155H
  ratio of the EC50s (our compound relative to DTG) against N155H: 0.6
HIV-1 IN mutant N117A; Human immunodeficiency virus 1, read-out: EC50 values N117A
  EC50: 0.8 nM
HIV-1 IN mutant N117A; [5]
  FC N117A: 0.4
HIV-1 IN mutant R231G; EC50 compound / EC50 DTG
  ratio of the EC50s (our compound relative to DTG) against R231G: 1.4
HIV-1 IN mutant R231G; Human immunodeficiency virus 1, read-out: EC50 values R231G
  EC50: 2 ± 0.2 nM
HIV-1 IN mutant R231G; [5]
  FC R231G: 1.0
[2]
  EC50: 5.2 ± 0.3 nM
HIV-1 IN mutant G118R [3]; EC50 compound / EC50 DTG
  ratio of the EC50s (our compound relative to DTG) against G118R: 0.9
HIV-1 IN mutant G118R [3]; [5]
  FC G118R: 5.7
HIV-1 IN mutant Y143H; EC50 compound / EC50 DTG
  ratio of the EC50s (our compound relative to DTG) against Y143H: 1.0
HIV-1 IN mutant Y143H; Human immunodeficiency virus 1, read-out: EC50 values Y143H, single round infection, n = 4
  EC50: 2.3 ± 0.1 nM
HIV-1 IN mutant Y143H; [5]
  FC Y143H: 1.2
HIV-1 IN mutant Y143H; read-out: EC50 values Y143H, single round infection, n = 4
  EC50: < 3 nM
HIV-1 IN mutant P142S; EC50 compound / EC50 DTG
  ratio of the EC50s (our compound relative to DTG) against P142S: 0.7
HIV-1 IN mutant P142S; Human immunodeficiency virus 1, read-out: EC50 values P142S
  EC50: 1.5 ± 0.3 nM
HIV-1 IN mutant P142S; [5]
  FC P142S: 0.8
HIV-1 IN mutant Y143C; EC50 compound / EC50 DTG
  ratio of the EC50s (our compound relative to DTG) against Y143C: 1.2
HIV-1 IN mutant Y143C; Human immunodeficiency virus 1, read-out: EC50 values Y143C, single round infection, n = 4
  EC50: 1.7 ± 0.4 nM
HIV-1 IN mutant Y143C; [5]
  FC Y143C: 0.9
HIV-1 IN mutant Y143C; read-out: EC50 values Y143C, single round infection, n = 4
  EC50: < 3 nM
HIV-1 IN mutant R231K; EC50 compound / EC50 DTG
  ratio of the EC50s (our compound relative to DTG) against R231K: 0.8
HIV-1 IN mutant R231K; Human immunodeficiency virus 1, read-out: EC50 values R231K, single round infection, n = 4
  EC50: 3.3 ± 0.2 nM
HIV-1 IN mutant R231K; read-out: EC50 values R231K, single round infection, n = 4
  EC50: < 5 nM
HIV-1 IN mutant G118R [4]
  EC50: 11.4 ± 3.5 nM
HIV-1 IN mutant S119R; EC50 compound / EC50 DTG
  ratio of the EC50s (our compound relative to DTG) against S119R: 1.1
HIV-1 IN mutant S119R; Human immunodeficiency virus 1, read-out: EC50 values S119R
  EC50: 2.6 ± 0.4 nM
HIV-1 IN mutant S119R; [5]
  FC S119R: 1.3
HIV-1 IN mutant N117H; EC50 compound / EC50 DTG
  ratio of the EC50s (our compound relative to DTG) against N117H: 1.1
HIV-1 IN mutant N117H; Human immunodeficiency virus 1, read-out: EC50 values N117H
  EC50: 2.7 nM
HIV-1 IN mutant N117H; [5]
  FC N117H: 1.4
WT HIV-1
  EC50: 2 ± 0.1 nM
HIV-1 IN mutant Y143R
  ratio of the EC50s (our compound relative to DTG) against Y143R: 0.1
HIV-1 IN mutant P142H; EC50 compound / EC50 DTG
  ratio of the EC50s (our compound relative to DTG) against P142H: 0.6
HIV-1 IN mutant P142H; Human immunodeficiency virus 1, read-out: EC50 values P142H
  EC50: 1.7 ± 0.2 nM
HIV-1 IN mutant P142H; [5]
  FC P142H: 0.9
HIV-1 IN mutant P142A; EC50 compound / EC50 DTG
  ratio of the EC50s (our compound relative to DTG) against P142A: 1.1
HIV-1 IN mutant P142A; Human immunodeficiency virus 1, read-out: EC50 values P142A
  EC50: 2.8 ± 0.1 nM
HIV-1 IN mutant P142A; [5]
  FC P142A: 1.4
